From patent US9885088B2, “Rapid phenotypic diagnosis of pathogens and drug resistance using transcriptional expression signatures” (priority 2010, dated 2018)
“Also recorded” adds a separate entry of the source.

Experiments:
M. tuberculosis [1] = assay: microbe, parasite or virus in culture; type: cell-based
M. tuberculosis [2] = type: cell-based

Structure (SMILES)	Sensitive (S) or Resistant (R) (M. tuberculosis [1])	increase in minimal inhibitory concentration (MIC) (M. tuberculosis [1]) [fold]	increase in the MIC (M. tuberculosis [1]) [fold]	minimal inhibitory concentration (MIC) (M. tuberculosis [1]) [µg/mL]	expression signature (MSD Z-score) (M. tuberculosis [2])	expression signature induction upon exposure (M. tuberculosis [2])	transcriptional response (M. tuberculosis [2])	transcriptional response / expression signature (M. tuberculosis [2])
NNC(=O)c1ccncc1 [Isoniazid]	S and R	> 100	8	> 6.4	resistant signature	no expression signature induction; also recorded: clearly shows induction of an expression signature	failed to elicit a transcriptional response	responds in a susceptible manner; also recorded: susceptible signature
[H]/N=C(/N)N[C@H]1[C@H](O)[C@@H](O)[C@H](O[C@@H]2O[C@@H](C)[C@](O)(C=O)[C@H]2O[C@@H]2O[C@@H](CO)[C@H](O)[C@@H](O)[C@@H]2NC)[C@@H](N/C(N)=N\[H])[C@@H]1O [Streptomycin]	S and R							
